# Test results published in PMC6767265, “Cytotoxicity and Apoptosis Induction of Coumarins and Carbazole Alkaloids from Clausena Harmandiana” (Molecules, 2019).
# Where “and” joins values, the source holds several entries; their conditions need not be identical. Equal values may be shown once. Marks after values point to notes of the source that are not given here.
# Key:
# [1] = test system: human hepatocellular carcinoma cell line (HepG2); assay: Cell viability assay (neutral red), HepG2; format: cell-based; details: for IC50: Homo sapiens, HepG2, 24 h, neutral red; for Selectivity Index HepG2: cancer cells over noncancerous Vero cells
# Method: (§1) The human lung adenocarcinoma cell line (SK-LU-1), human colon carcinoma cell line (HCT116), human hepatocellular carcinoma cell line (HepG2) and noncancerous African green monkey kidney epithelial cell line (Vero) were cultured in Dulbecco’s modified Eagle’s medium (DMEM) supplemented with 10% fetal bovine serum, 100 IU/mL penicillin and […] streptomycin. Cells were incubated at 37 °C with 95% air and 5% CO2 until they reached approximately 80% confluence before use.
# (§2) Cell viability assay was assessed by neutral red (NR). Briefly, cells at a density of 3 × 10^4 cells/well were seeded in 96-wells plate and incubated for 24 h. The sample at concentration, ranging from 10 to 500 µM, were added and incubated for 24 h. After incubation time, cells were washed with PBS. NR reagent (50 µg/mL) was added to each well and incubated for another 2 h. After that, cells were washed with PBS and lyzed with 0.33% HCl in isopropanol. Cisplatin was used as a positive control. The absorbance of NR was detected using microplate reader (Tecan, Lyon, France) at 520 nm. The percentage of cell viability was calculated vis-à-vis the untreated cells and cytotoxicity was expressed as the inhibition concentration at 50% (IC50). The final DMSO concentration was not exceed 0.1%v/v to lessen the cytotoxicity (<10%).
# [2] = test system: noncancerous African green monkey kidney epithelial cell line (Vero); assay: Cell viability assay (neutral red), Vero; format: cell-based; set-up: key to IC50 Vero: inactive: Inactive means cell viability percentage was >50% at the maximum concentration used (>100 µM for the compound or >100 µg/mL for the extract); details: 24 h, inactive = viability >50% at >100 µM
# Method: as §1, §2
# [3] = Ferric reducing antioxidant power (FRAP) assay; format: biochemical; details: 100 µM compound
# Method: FRAP assay was performed following the pervious study with slight modification. FRAP reagent was prepared by mixing 300 mM acetate buffer (pH 3.6), 20 mM ferric chloride solution and 10 mM TPTZ solution in the ratio of 10:1:1 and incubated at 37 °C for 30 min. Then, 150 µL of FRAP reagent was added with 50 µL of the sample (100 µM of isolated compounds or 100 µg/mL of the CH2Cl2 crude extract) in each well of the 96-wells plate. The absorbance was measured at 595 nm using microplate reader (Tecan, Lyon, France). Trolox was used as a positive control. The FRAP value was calculated from the linear equation between the absorbance and ferrous sulfate standard curves (y = 0.0548x + 0.0213, R^2 = 0.9989) and expressed as µM of ferrous sulfate equivalents.
# [4] = DPPH radical scavenging assay; format: biochemical; details: for DPPH Assay IC50 / IC50: 30 min in the dark, absorbance 517 nm; for DPPH radical scavenging activity classification: classified from IC50 in µg/mL
# Method: The 2,2–diphenyl–1–picrylhydrazyl (DPPH) radical scavenging assay was conducted as per the previous method. Briefly, the stock solutions of 10 mM DPPH was prepared in methanol. The DPPH was mixed with samples (100 µL each) at various concentrations (1−500 µM) in 96 wells plate and incubated for 30 min in a dark condition. The absorbance of DPPH radical was measured at 517 nm using a microplate reader (Tecan, Lyon, France). Trolox was used as a positive control. The half maximum inhibitory concentration (IC50 value) was calculated from the plot of percentage of DDPH radical inhibition versus concentration of samples using the following formula: % DPPH radical inhibition = [(Ab − As)/Ab] × 100,(1) where Ab = absorbance of the reagent blank, and As = absorbance of the sample. Each experiment was done in five replications and results are expressed as average values.
# HepG2 cells = assay: Mode of cell death by Annexin V-FITC/PI staining, flow cytometry; format: cell-based, human
# Text: In this study, double staining of cells by Annexin V-FITC/propidium iodide (PI) was used to differentiate apoptosis from necrosis. The stages of apoptosis can be distinguished from necrotic cell death by flow cytometry using Annexin V-FITC/PI double staining of HepG2 cells. During the early stages of apoptosis, the phosphatidylserine comprising the cell membrane will externalize to be exposed to the surface of apoptotic cells and bind with Annexin V-FITC, showing a cell dot plot in Quadrant 4. The cell dot plot is positively stained with Annexin V-FITC but negatively stained with PI (+/−). When cells are damaged or undergo a late state of apoptosis, cells will lose their membrane integrity, including nuclear membrane integrity, so that PI can pass through the nuclear membrane, showing a cell dot plot in Quadrant 2. […] During cell undergo necrotic cell death, cells are stained and appear in Quadrant 1 (−/+). Normal cells are not stained and appear in Quadrant 3 (−/−). The total apoptotic cell death percentage was counted from the percentage of cells undergoing an early state and late state of apoptosis gathering from Quadrants 4 and 2, while the necrotic cell death percentage was counted from Quadrant 1, as shown in Figure 2.
# The Annexin V-FITC and PI apoptosis assay kit (BioLegend, San Diego, CA, USA) was used to determine mode of cell death as per previous report. The HepG2 cells (8 × 10^5 cell/mL) were seeded in a 24-well plate and incubated for 24 h. The compounds at a concentration of 1 x IC50 and 2 x IC50 were added and incubated for 12 and 24 h. After that, cells were washed with PBS and cold BioLegend’s cell staining buffer followed by staining with Annexin V-FITC and PI and cell were incubated in the dark for 15 min. The cells were analyzed by flow cytometry (BD FACSCanto II, BD Biosciences, San Jose, CA, USA) and the percentage of cells in different populations were calculated with FACSDiva software.
# [5] = test system: human lung adenocarcinoma cell line (SK-LU-1); assay: Cell viability assay (neutral red), SK-LU-1; format: cell-based; details: for IC50: Homo sapiens, SK-LU-1, 24 h, neutral red, inactive = viability >50% at >100 µM; for Selectivity Index SK-LU-1: cancer cells over noncancerous Vero cells
# Method: as §1
# as §2, with “The sample at concentration, ranging from 10 to 500 µM, were added and incubated for 24 h.” left out
# [6] = test system: human colon carcinoma cell line (HCT116); assay: Cell viability assay (neutral red), HCT116; format: cell-based; details: for IC50: Homo sapiens, HCT-116, 24 h, neutral red, inactive = viability >50% at >100 µM; for Selectivity Index HCT116: cancer cells over noncancerous Vero cells
# Method: as §1
# as §2, with “The sample at concentration, ranging from 10 to 500 µM, were added and incubated for 24 h.” left out
SMILES,IC50 [1],Selectivity Index HepG2 [1],FRAP Value [3],DPPH Assay IC50 [4],IC50 [4],DPPH radical scavenging activity classification [4],"necrotic cell death percentage (Q1, Annexin V-FITC/PI −/+) (HepG2 cells; HepG2, 1 × IC50, 12 h)","necrotic cell death percentage (Q1, Annexin V-FITC/PI −/+) (HepG2 cells; HepG2, 2 × IC50, 12 h)",IC50 [5],Selectivity Index SK-LU-1 [5],IC50 [6],Selectivity Index HCT116 [6],also measured
"COc1c2c(cc3oc(=O)ccc13)OC(C)(C)C=C2 [Xanthoxyletin (4), xanthoxyletin]",78.2 ± 2.2 µM,(1.3),5.2 ± 0.3^f µM FeSO4 Equivalents,63.8 ± 0.8^d µg/mL,247 ± 3 µM,low radical scavenger,2.5 ± 0.7%,2.9 ± 1.2%,94.4 ± 2.2 µM,(1.1),79.8 ± 2.8 µM,(1.3),"IC50 Vero [2]: inactive^cB; FRAP Value ([3]; listed as xanthoxyletin): 5.2 µM FeSO4 Equivalents; apoptotic cell death percentage (total, Quadrants 4 and 2) (HepG2 cells; HepG2, 1 × IC50, 24 h): 49.7 ± 1.1%; necrotic cell death percentage (Q1, Annexin V-FITC/PI −/+) (HepG2 cells; HepG2, 1 × IC50, 24 h): 1.6 ± 0.9%; apoptotic cell death percentage (total, Quadrants 4 and 2) (HepG2 cells; HepG2, 2 × IC50, 12 h): 49.6 ± 1.2%; apoptotic cell death percentage (total, Quadrants 4 and 2) (HepG2 cells; HepG2, 2 × IC50, 24 h): 64.2 ± 3.2%; necrotic cell death percentage (Q1, Annexin V-FITC/PI −/+) (HepG2 cells; HepG2, 2 × IC50, 24 h): 2.7 ± 1.1%"
"C=CC(C)(C)c1cc2c(O)c3c(c(C(C)(C)C=C)c2oc1=O)OC(C)(C)C=C3 [Clausarin (2), clausarin]",17.6 ± 2.1 µM,(4.4),45.2 ± 1.0^b µM FeSO4 Equivalents,2.3 ± 0.3^a µg/mL,6 ± 0.8 µM,high radical scavenger,6.8 ± 1.4%,27.4 ± 3.8%,6.9 ± 1.6 µM,(11.3),44.9 ± 1.4 µM,(1.7),"IC50 ([2]; Chlorocebus sabaeus, Vero): 78.2 ± 3 µM; FRAP Value ([3]; listed as clausarin): 45.2 ± 1.0 µM FeSO4 Equivalents and 45.2 µM FeSO4 Equivalents; apoptotic cell death percentage (total, Quadrants 4 and 2) (HepG2 cells; HepG2, 1 × IC50, 12 h): 44.0 ± 1.2%"
